# Measurements as given in US8642594B2, “Substituted thieno[2,3-d]pyrimidines as HSP90 inhibitors” (Vernalis (R&D) Limited, priority 2003, dated 2014).
# Molecular target: T1, Human full-length Hsp90 (Homo sapiens, UniProt P08238)
# T1 construct: E. coli expressed human full-length HSP90 protein, purified >95%; made in house; host or cells: E. coli
# Assay: Fluorescence polarization assay (competitive binding to HSP90, probe RBT0045864-FAM)
# Conditions: not given
# Experimental: Fluorescence Polarization Assay
# Fluorescence polarization {also known as fluorescence anisotropy} measures the rotation of a fluorescing species in solution, where the larger molecule the more polarized the fluorescence emission. When the fluorophore is excited with polarized light, the emitted light is also polarized. The molecular size is proportional to the polarization of the fluorescence emission.
# The fluoroscein-labelled probe—RBT0045864-FAM—
# Test compound is added to the assay plate, left to equilibrate and the anisotropy measured again. Any change in anisotropy is due to competitive binding of compound to HSP90, thereby releasing probe.
# Stored at room temperature. • 3) BSA (bovine serum albumen) 10 mg/ml (New England Biolabs #B9001S) • 4) 20 mM probe in 100% DMSO stock concentration. Stored in the dark at RT. Working concentration is 200 nM diluted in AR water and stored at 4° C. […] Protocol • 1) Add 100 μl 1× buffer to wells 11A and 12A (=FP BLNK) • 2) Prepare assay mix—all reagents are kept on ice with a lid on the bucket as the probe is light-sensitive.
# This gives 2.5 mM {50×} stock cpd—assuming cpds 20 mM. • 4) Repeat for wells A2 to A10. Control in columns 11 and 12. • 5) Transfer 5 μl from row A to row B—not column 12. Mix well. • 6) Transfer 5 μl from row B to row C. […] Add 2 μl of 100 mM standard cpd to wells B12-H12 {is positive control} • 13) The Z′ factor is calculated from zero controls and positive wells.
# T1 sequence (P08238 whole entry): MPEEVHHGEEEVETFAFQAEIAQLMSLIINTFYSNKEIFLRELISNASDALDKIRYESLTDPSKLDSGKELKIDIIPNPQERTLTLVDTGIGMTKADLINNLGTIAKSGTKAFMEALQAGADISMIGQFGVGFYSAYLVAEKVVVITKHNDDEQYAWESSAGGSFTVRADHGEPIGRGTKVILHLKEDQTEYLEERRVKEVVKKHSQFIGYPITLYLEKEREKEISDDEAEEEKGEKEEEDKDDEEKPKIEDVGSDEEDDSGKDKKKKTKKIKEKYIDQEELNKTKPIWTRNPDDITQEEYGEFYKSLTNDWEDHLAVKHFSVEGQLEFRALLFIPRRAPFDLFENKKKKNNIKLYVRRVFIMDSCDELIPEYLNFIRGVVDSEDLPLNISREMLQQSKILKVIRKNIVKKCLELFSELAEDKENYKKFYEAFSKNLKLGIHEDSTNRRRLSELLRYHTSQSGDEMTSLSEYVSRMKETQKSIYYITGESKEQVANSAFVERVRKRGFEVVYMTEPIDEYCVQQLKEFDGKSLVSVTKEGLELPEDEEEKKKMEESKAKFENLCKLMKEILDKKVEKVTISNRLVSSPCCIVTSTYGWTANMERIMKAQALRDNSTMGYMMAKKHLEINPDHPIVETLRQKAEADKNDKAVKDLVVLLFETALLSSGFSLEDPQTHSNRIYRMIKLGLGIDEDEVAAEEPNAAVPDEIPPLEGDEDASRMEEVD
row,Compound,IC50
1,"CCNC(=O)c1cc2c(-c3ccccc3)nc(N)nc2s1 [Example 43, 2-Amino-4-phenyl-thieno[2,3-d]pyrimidine-6-carboxylic acid ethylamide]",< 10 µM
2,CCNC(=O)c1cc2c(-c3cc(OCCNCCOC)c(Cl)cc3Cl)nc(N)nc2s1 [Example 247],< 10 µM
3,CCNC(=O)c1cc2c(-c3ccc(C)cc3C)nc(N)nc2s1 [Example 80],< 10 µM
4,CCNC(=O)c1cc2c(-c3cc(OCCN4CCCC4)c(Cl)cc3Cl)nc(N)nc2s1 [Example 253],< 10 µM

# Same assay, conditions: fluorescence polarization assay, activity range; read-out: Hsp90 FP IC50
row,Compound,IC50
1,Nc1nc(-c2ccc(Cl)cc2Cl)c2cc(C(=O)NCc3cccs3)sc2n1 [Example 124],< 10 µM
2,CCCCOc1ccc(-c2nc(N)nc3sc(C(=O)OCC)cc23)c(C)c1 [Example 186],> 10 µM
3,CCOC(=O)c1cc2c(-c3ccc(OCCCO)cc3C)nc(N)nc2s1 [Example 194],< 10 µM
4,Cc1ccc(-c2nc(N)nc3sc(C(=O)NC(C)C)cc23)c(C)c1 [Example 81],< 10 µM
5,CCOC(=O)c1cc2c(-c3cc(CNCCN4CCOCC4)ccc3C)nc(N)nc2s1 [Example 198],< 10 µM
6,CCOC(=O)c1cc2c(C(C#N)c3ccccc3)nc(N)nc2s1 (centres unmarked) [Example 317],< 10 µM
7,Nc1nc(-c2ccc(Cl)cc2Cl)c2cc(C(=O)NCCCO)sc2n1 [Example 101],< 10 µM
8,CCNC(=O)COc1ccc(-c2nc(N)nc3sc(C(=O)OCC)cc23)c(C)c1 [Example 195],< 10 µM
9,"CCOC(=O)c1cc2c(-c3cc(C=O)ccc3C)nc(N)nc2s1 [Example 196, 2-Amino-4-(5-formyl-2-methyl-phenyl)-thieno[2,3-d]pyrimidine-6-carboxylic acid ethyl ester]",< 10 µM
10,CCNC(=O)c1cc2c(-c3cc(CNCCO)c(C)cc3C)nc(N)nc2s1 [Example 234],< 10 µM
11,CCOC(=O)c1cc2c(C=Cc3ccccc3)nc(N)nc2s1 [275 Step 1],< 10 µM
12,CCOC(=O)c1cc2c(/C=C/c3ccc(C(F)(F)F)cc3)nc(N)nc2s1 [Example 288],< 10 µM
13,Nc1nc(-c2ccc(Cl)cc2Cl)c2cc(C(=O)NCC(O)CO)sc2n1 (centres unmarked) [Example 128],< 10 µM
14,CCOC(=O)c1cc2c(C(=O)c3ccc(C)c(C)c3)nc(N)nc2s1 [Example 306],< 10 µM
15,CCOC(=O)c1cc2c(-c3cccc(C#N)c3)nc(N)nc2s1 [Example 17],> 10 µM
16,Cc1ccc(-c2nc(N)nc3sc(C(=O)NCCc4c[nH]cn4)cc23)c(C)c1 [Example 86],< 10 µM
17,CCCNC(=O)c1ccc(C)c(-c2nc(N)nc3sc(C(=O)NCc4ccccc4)cc23)c1 [Example 182],> 10 µM
18,CC(C)NC(=O)c1cc2c(-c3cc(OCc4ccccc4)c(Cl)cc3Cl)nc(N)nc2s1 [Example 242],< 10 µM
19,CC(C)CNC(=O)c1cc2c(-c3ccccc3)nc(N)nc2s1 [Example 52],> 10 µM
20,CCOC(=O)c1cc2c(-c3cc(C)c(Br)cc3C)nc(N)nc2s1 [Example 105],< 10 µM
21,CCOC(=O)c1cc2c(-c3ccc(OCC(C)C)cc3C)nc(N)nc2s1 [Example 189],> 10 µM
22,C=C(c1ccc(Cl)cc1)c1nc(N)nc2sc(C(=O)OCC)cc12 [Example 280],< 10 µM
23,CCOC(=O)c1cc2c(-c3c(Cl)cccc3OC)nc(N)nc2s1 [Example 147],> 10 µM

row,Compound,IC50
1,CCN1CCCC1CNC(=O)c1cc2c(-c3ccc(Cl)cc3Cl)nc(N)nc2s1 (centres unmarked) [Example 129],< 10 µM
2,CC(C)NC(=O)c1cc2c(-c3cc(OCCN4CCCC4)c(Cl)cc3Cl)nc(N)nc2s1 [Example 257],< 10 µM
3,"CCCNCc1ccc(C)c(-c2nc(N)nc3sc(C(=O)NCC)cc23)c1 [Example 197, 2-Amino-4-(2-methyl-5-propylaminomethyl-phenyl)-thieno[2,3-d]pyrimidine-6-carboxylic acid ethylamide]",< 10 µM
4,"CCOC(=O)c1cc2c(C(C#N)c3ccc4c(c3)OCO4)nc(N)nc2s1 (centres unmarked) [Example 316, 2-Amino-4-(benzo[1,3]dioxol-5-yl-cyano-methyl)-thieno[2,3-d]pyrimidine-6-carboxylic acid ethyl ester]",< 10 µM
5,CN1CCC(NC(=O)c2cc3c(-c4ccc(Cl)cc4Cl)nc(N)nc3s2)CC1 [Example 137],< 10 µM
6,NC(=O)[C@H](CO)NC(=O)c1cc2c(-c3ccc(Cl)cc3Cl)nc(N)nc2s1 [Example 162],< 10 µM
7,Cc1ccc(-c2nc(N)nc3sc(C(=O)NCCCO)cc23)c(C)c1 [Example 85],< 10 µM
8,CCOC(=O)c1cc2c(NCCCN3CCCC3=O)nc(N)nc2s1 [Example 31],> 10 µM
9,C=Cc1ccc(-c2nc(N)nc3sc(C(=O)NCC)cc23)c(C)c1 [Example 171],< 10 µM
10,CN(C)CCCNC(=O)c1cc2c(-c3ccccc3)nc(N)nc2s1 [Example 45],> 10 µM
11,CCOC(=O)c1cc2c(-c3ccc(C)cc3)nc(N)nc2s1 [Example 11],< 10 µM
12,Nc1nc(-c2ccc(Cl)cc2Cl)c2cc(C(=O)Nc3nccs3)sc2n1 [Example 142],< 10 µM
13,NC(=O)[C@H](Cc1ccc(O)cc1)NC(=O)c1cc2c(-c3ccc(Cl)cc3Cl)nc(N)nc2s1 [Example 163],< 10 µM
14,CCOC(=O)c1cc2c(-c3ccc(C)cc3Cl)nc(N)nc2s1 [Example 79],< 10 µM
15,CCNC(=O)c1cc2c(-c3c(C)cccc3C)nc(N)nc2s1 [Example 73],< 10 µM
16,CCNC(=O)c1cc2c(-c3cc(O)c(Cl)cc3Cl)nc(N)nc2s1 [Example 240],< 10 µM
17,CCOC(=O)c1cc2c(-c3ccc(OCC)cc3Cl)nc(N)nc2s1 [Example 78],< 10 µM
18,CCNC(=O)c1cc2c(-c3cccc(OCCN(CC)CC)c3)nc(N)nc2s1 [Example 260],< 10 µM
19,CCOC(=O)c1cc2c(-c3cccc4cccnc34)nc(N)nc2s1 [Example 100],> 10 µM
20,CCOC(=O)c1cc2c(NCCCc3c[nH]nc3O)nc(N)nc2s1 [Example 36],> 10 µM
21,CCNC(=O)c1cc2c(-c3cc(OCc4cc(=O)[nH]c(=O)[nH]4)c(Cl)cc3Cl)nc(N)nc2s1 [Example 268],< 10 µM
22,Nc1nc(-c2ccc(Cl)cc2Cl)c2cc(C(=O)NC3CCCC3)sc2n1 [Example 153],< 10 µM
23,CCNC(=O)c1cc2c(-c3cccc(O)c3)nc(N)nc2s1 [Example 244],< 10 µM

row,Compound,IC50
1,CCOC(=O)c1cc2c(C(=O)c3ccccc3)nc(N)nc2s1 [Example 296],< 10 µM
2,CCOC(=O)c1cc2c(-c3ccccc3C)nc(N)nc2s1 [Example 15],< 10 µM
3,"CCOC(=O)c1cc2c(C#N)nc(N)nc2s1 [Example 319, 2-Amino-4-cyano-thieno[2,3-d]pyrimidine-6-carboxylic acid ethyl ester]",< 10 µM
4,Nc1nc(-c2ccc(Cl)cc2Cl)c2cc(C(=O)N3CCC(N)C3)sc2n1 (centres unmarked) [Example 159],< 10 µM
5,Nc1nc(-c2ccccc2)c2cc(C(=O)Nc3ccccc3)sc2n1 [Example 60],> 10 µM
6,CCOC(=O)c1cc2c(NC3CCCCC3)nc(N)nc2s1 [Example 24],> 10 µM
7,CCNC(=O)c1cc2c(-c3cc(CNCCO)ccc3C)nc(N)nc2s1 [Example 205],< 10 µM
8,Nc1nc(-c2ccc(Cl)cc2Cl)c2cc(C(=O)Nc3ccccc3)sc2n1 [Example 107],< 10 µM
9,CCOC(=O)c1cc2c(-c3cc(C=O)c(C)cc3C)nc(N)nc2s1 [Example 174],< 10 µM
10,Nc1nc(-c2ccccc2)c2cc(C(=O)NCCCO)sc2n1 [Example 53],< 10 µM
11,"CCN(CC)CCOc1cc(-c2nc(N)nc3sc(C(=O)NC(C)C)cc23)c(Cl)cc1Cl [Example 237, 2-Amino-4-[2,4-dichloro-5-(2-diethylamino-ethoxy)-phenyl]-thieno[2,3-d]pyrimidine-6-carboxylic acid isopropyl amide]",< 10 µM
12,C[C@H](NC(=O)c1cc2c(-c3ccc(Cl)cc3Cl)nc(N)nc2s1)C(N)=O [Example 160],< 10 µM
13,CCOC(=O)c1cc2c(-c3ccc(C)cn3)nc(N)nc2s1 [Example 114],< 10 µM
14,CCOC(=O)c1cc2c(-c3ccc(C)cc3C)nc(N)nc2s1 [Example 34],< 10 µM
15,CCNC(=O)c1cc2c(-c3cc(CNCCc4ccccc4)ccc3C)nc(N)nc2s1 [Example 215],< 10 µM
16,CCN(CC)CCOc1cc(-c2nc(N)nc3sc(C(=O)NC(C)(C)C)cc23)c(Cl)cc1Cl [Example 265],< 10 µM
17,CCOC(=O)c1cc2c(-c3cc(C)ccc3C)nc(N)nc2s1 [Example 88],< 10 µM
18,Nc1nc(-c2ccc(Cl)cc2Cl)c2cc(C(=O)Nc3cc[nH]n3)sc2n1 [Example 143],< 10 µM
19,CCOC(=O)c1cc2c(-c3ccc(CO)cc3)nc(N)nc2s1 [Example 35],< 10 µM
20,C=Cc1ccc(-c2nc(N)nc3sc(C(=O)OCC)cc23)c(C)c1 [Example 168],< 10 µM
21,"Cc1ccc(-c2nc(N)nc3sc(S(=O)(=O)NC4CC4)cc23)c(C)c1 [Example 274, 2-Amino-4-(2,4-dimethyl-phenyl)-thieno[2,3-d]pyrimidine-6-sulfonic acid cyclopropylamide]",< 10 µM
